Measured values: patent US20200352880A1 (priority 2019, published 2020)

Columns and labels:
E44 [1] = assay: spread of E44 in infected mice (bacterial counts in blood, livers, lungs, spleens); format: in vivo, C57 mice; settings: MEM 5-10 μg/g body weight intraperitoneally, 24 hours
Experimental: After 24 hours of E44 infection, the mice are dissected to obtain blood, livers, lungs, and spleens under aseptic condition. The obtained blood, after performing an appropriate serial dilution, is spread over BHI (containing rifampin) agar plates. The obtained livers, lungs, and spleens are precisely weighed, added with pre-cooled sterile PBS in a ratio of 0.1 g/ml, and fully homogenized. The homogenates, after performing an appropriate serial dilution, are spread over BHI (containing rifampin) agar plates.
After confirming that MEM may enhance NET formation in bacteria-infected mice, whether MEM may block the spread of bacteria in mice is discussed. […] After 24 hours of bacterial infection, the mice are dissected to obtain blood, livers, lungs, and spleens under aseptic condition for bacterial count determination.

neutrophils [2] = assay: MRSA-induced NET formation (release of neutrophil DNA); format: cell-based
Text: (§1) Since DNA is a major component of NETs, NET formation is first examined by determining the amount of DNA released from neutrophils. […] Methods are described in Reference 1.
(§2) Experimental procedures of MEM enhancing NET formation and facilitating killing of MRSA by neutrophils are the same as described previously.

MRSA = assay: killing of MRSA by neutrophils; format: cell-based, methicillin-resistant Staphylococcus aureus; settings: increased concentration of MEM (1-25 μM); concentration-dependent
Experimental: (§3) The bactericidal functions of neutrophils include phagocytosis and NET-mediated killing. […] Experiments are performed according to the procedures described in Reference 2. […] The bacteria are collected and spread over Brain Heart Infusion (BHI) agar plates containing rifampin and allowed to culture for 12-16 hours, then the number of bacterial colonies of each sample is counted. […] After 1-hour incubation, the samples are centrifuged, collected, and mounted on microscope slides, which are sealed after DAPI staining, then phagocytosis of PMNs is observed and phagocytized particles are counted under a fluorescence microscope. […] However, early phagocytosis is not accompanied by a significant change in PMN structure when MOI<50. When MOI>50, each PMN on average includes at least 50 E44, a significant nuclear morphological change occurs.
as §2

PMNs = assay: immunofluorescence of MPO, S100A9 and DNA in PMNs (NET formation); format: cell-based; settings: PMA groups and E44 groups treated with MEM
E44 [3] = assay: NET formation in E44-infected mice (serum free DNA and NE); format: in vivo, C57 mice; settings: MEM 5-10 μg/g body weight intraperitoneally, 24 hours
Experimental: After 24 hours, serum is obtained from blood samples collected from hearts, and the amounts of free DNA and neutrophil elastase (NE) in the serum of each mouse are determined using PicoGreen and Mouse PMN Elastase ELISA Kit (R&D Systems) respectively.

mouse BMECs = assay: gene expression profile of E44-infected BMECs by Next Generation Sequencing; format: cell-based; settings: E44 infection 0.5 hours
Experimental: After the mouse BMECs are infected with E44 for 0.5 hours, the cells are collected to extract RNA, which is sent to Hua-Da Company (China) for Next Generation Sequencing analysis.
After the mouse BMECs are infected with E44 for 0.5 hours, the cells are collected to extract RNA, which is sent to Hua-Da Company (China) to analyze alterations on gene expression profile using Next Generation Sequencing and look for differentially expressed genes, a total of 978 differentially expressed genes are found.

cBMECs = assay: number of circulating brain microvascular endothelial cells (cBMECs) in blood; settings: in vivo
Experimental: The protocol is prepared as follows:
According to manufacturer's instructions, Dynabeads M-450 solution with a final concentration of 4×10^8 beads/ml is prepared by Hank's Balanced Salt Solution. BMECs in brain tissues and blood are isolated using UEA I. The BMECs from the brain tissues are cultured with RPMI-1640 medium containing 10% fetal bovine serum and identified using CD146 and Mfsd2a antibodies.

E44 [4] = assay: killing, NET trapping and phagocytosis of E44 by neutrophils; format: cell-based, E. coli
Experimental: as §3

neutrophils [5] = assay: E44-induced NET formation: DNA release (PicoGreen) and neutrophil elastase (NETosis Assay Kit) from neutrophils; format: cell-based; settings: concentration-dependent
Text: as §1
The methods of neutrophil isolation and preparation are similar to those described previously, and the amount of NE is detected by following kit instructions.

α7nAChR = α7nAChR (Homo sapiens, UniProt P36544); settings: cited from earlier work
Sequence of α7nAChR (P36544 23-502): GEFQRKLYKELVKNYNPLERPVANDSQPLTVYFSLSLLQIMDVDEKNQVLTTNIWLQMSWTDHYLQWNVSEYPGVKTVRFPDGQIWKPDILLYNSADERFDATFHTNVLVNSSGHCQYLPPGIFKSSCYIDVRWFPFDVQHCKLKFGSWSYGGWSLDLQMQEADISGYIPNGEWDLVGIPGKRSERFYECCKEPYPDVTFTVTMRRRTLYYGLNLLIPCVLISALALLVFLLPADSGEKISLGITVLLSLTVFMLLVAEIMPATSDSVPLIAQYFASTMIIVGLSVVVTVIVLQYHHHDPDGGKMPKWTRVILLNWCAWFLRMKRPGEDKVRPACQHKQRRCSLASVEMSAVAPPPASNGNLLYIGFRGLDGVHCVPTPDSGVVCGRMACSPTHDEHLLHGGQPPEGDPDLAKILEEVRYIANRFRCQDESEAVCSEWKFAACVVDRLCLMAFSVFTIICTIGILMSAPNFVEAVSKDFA

α7nAChR and S100A9 = assay: immunofluorescence of α7nAChR and S100A9 in PMNs incubated with E44; format: cell-based; settings: PMNs with bacteria (E44), compared to bacteria groups
Experimental: The next step is to further examine whether alpha7 nicotinic acetylcholine receptor (α7nAChR) is associated with antimicrobial protein S100A9 during the process of phagocytizing E44 by PMNs. […] Next, an immunofluorescence staining test is performed on the samples as follows: a primary antibody is added to incubate with α7nAChR and S100A9 overnight at 4° C., and then the corresponding FITC and PE-conjugated secondary antibodies are added to incubate for 1 hour at room temperature, after mounting the samples on microscope slides with DAPI sealing, positioning and expression of α7nAChR and S100A9 are observed under a fluorescence microscope. Compared to the control group, S100A9 (red) is redistributed to the cell edge and area around the nucleus (FIG. 6) after infected with E44, it is observed that α7nAChR (green) and S100A9 (red) are located in the same position with presenting of colocalization, and the expression of both is elevated, α7nAChR (green) and S100A9 (red) also appear to have a high degree of colocalization(R close to 1) after ImageJ software analysis.

E44 [6] = assay: killing of E44 by phagocytosis in dHL60 cells after CHRNA7 siRNA silencing; format: cell-based, E. coli; settings: MEM dose up to 50 μM
Experimental: FIGS. 5A, 5B, 5C, and 5D illustrate the influence on phagocytosis by PMNs after gene silencing of CHRNA7 and S100A9. 2×10^6/ml HL60 cells are treated with 1.3% DMSO for cell stimulation and induction, and cell morphology is observed under an inverted microscope after 4-5 days. Compared to the control group, the cell volume gradually enlarges, granulocyte nuclear shapes such as kidney-shaped (banded) nucleus, segmented (multi-lobed) nucleus, bean-shaped nucleus appear after 48 hours and gradually increase over time. Cell status of each experimental group is identified using Typan Blue Exclusion Test and Wright-Giemsa Stain Method to meet the requirements for cell quality in follow-up studies. Differentiated neutrophils are added with CHRNA7 and S100A9siRNA, respectively, and treated with lipofectamine 2000 in 24-well plates, a supplemental complete cell culture medium is added after 6 hours to incubate for 48 hours, and the expression of CHRNA7 and S100A9 in differentiated HL60 (dHL60) cells is examined. Control siRNA acts as the control group, and GAPDH represents the housekeeping gene.
Samples are prepared by the dHL60 cells and E44 in a ratio of 1:5 and allowed to interact for 1 hour.

C[C@]12C[C@@H]3C[C@](C)(C1)C[C@@](N)(C3)C2.Cl [MEM, 3,5-Dimethyl-1-aminoadamantane hydrochloride]
spread of bacteria (E44) in mice (E44 [1]): significantly block
release of neutrophil DNA under the effect of MRSA (neutrophils [2]): significantly enhance
survival rate of MRSA (MRSA): gradually decreases
MPO, S100A9 and DNA formation (NET formation) (PMNs): a large number of MPO (green), S100A9 (red), and DNA (blue) are formed
NE in the blood (serum) of E44-infected mice (E44 [3]): significantly enhance
free DNA in the blood (serum) of E44-infected mice (E44 [3]): significantly enhance
E44-induced alterations on gene expression (mouse BMECs): reverse
anti-inflammatory genes IL-33, IL-18rap, MMP10, Irs1 expression (mouse BMECs): significantly up-regulate
pro-inflammatory genes A20, CISH, Ptgds, ZEP36 expression (mouse BMECs): down-regulate
number of cBMECs in blood (cBMECs): reduce
phagocytosis of E44 by PMNs (E44 [4]; 50 μM MEM, E44 MOI=1, 5, 50, 100, 1-hour incubation, versus E44 groups): more E44 are phagocytized
NETs trapping of E44 (E44 [4]; DNase used to dissolve DNA): concentration-dependently enhance
killing of E44 by neutrophils, including phagocytosis and NET-mediated killing (E44 [4]; E44 MOI=10, MEM 0, 10, 20, 50 μM, 2 hours, with or without Cytochalasin D): concentration-dependently enhance
release of DNA from neutrophils under the effect of E44 (neutrophils [5]; E44 MOI=10, different concentrations of MEM, 4 hours): significantly enhanced
production of neutrophil elastase (NE) under the effect of E44 (neutrophils [5]; E44 with addition of MEM): significantly increased
inhibitory effect on α7nAChR compared with inhibitory effect on NMDAR (α7nAChR): stronger
degree of colocalization of α7nAChR and S100A9 (α7nAChR and S100A9): remarkably reduced
expression of α7nAChR and S100A9 (α7nAChR and S100A9): significantly decreased
effect of MEM on phagocytizing bacteria by PMNs after CHRNA7 down-regulation (E44 [6]): not obvious
